This note sets out measurements from PubChem BioAssay AID1845201 (Molecular Pharmacology Branch, DTP, NCI, 2023).

Values joined by “and” are separate entries in the source; they are usually repeats but may differ in a detail not shown here. Equal values may be shown once.

The assay deals with COR L88 complex tumor spheroid viability. The assay is described as follows: Anticancer human tumor COR L88 cell line growth inhibition.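 On all read-outs here: compound exposure lasted 7 days before viability readout.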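 On viability, T/C: percent of DMSO vehicle-treated spheroids = 100%.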 The conditions noted are these: for viability, T/C: stronger effect = lower value. The method in brief: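 Single agents and combinations were tested on spheroids built from tumor cells plus HUVEC and hMSC, at half-log dilutions starting at or near clinical Cmax, else 10 microM; final DMSO 0.25% (v/v).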

With `COc1ccc([C@@H](O)c2cc(-c3ncnc4cc(N5CCOCC5)ccc34)c(F)cc2Cl)nn1`, the viability, T/C is, setting by setting: (compound 0.0316 µM) 108% and 105% and 101%; (compound 0.1 µM) 98.8% and 102% and 98.1%; (compound 0.316 µM) 103% and 93.9% and 104%; (compound 1 µM) 76.1% and 83% and 81.6%; (compound 3.16 µM) 56% and 64.4% and 54.8%; (compound 10 µM) 33.7% and 39% and 36.1%. Besides, under “curve of compound”, the IC50 is 4.01 µM and 6.1 µM.
